Experimental data: paper PMC11674118, “New High-Affinity Peptide Ligands for Kv1.2 Channel: Selective Blockers and Fluorescent Probes” (Cells, 2024)
Where two headings read alike, the source gives them in different places. Where a SMILES comes first, the peptide text is derived from it. Bridges are numbered along the chain shown (N, C = ends).

Experiments:
K-Kv1.2 channel = assay: Whole-cell patch-clamp of Neuro2a cells transfected with K-Kv1.2; format: cell-based, human; settings: for block of current through K-Kv1.2: 10 nM peptide, whole-cell, representative traces (Figure 8d-g)
Protocol: The patch-clamp method (whole-cell configuration) was used to measure membrane ion currents as described earlier. All the measurements were carried out at room temperature in a buffer containing (mM) 140 NaCl, 2.8 KCl, 2 MgCl2, 2 CaCl2, 10 HEPES, and 10 glucose (pH 7.4). Resistance of the micropipette tip was 6–8 MΩ. The pipette solution contained (mM) 140 KCl, 6 CaCl2, 2 MgCl2, 2 MgATP, 0.4 NaGTP, 10 HEPES, and 20 BAPTA/KOH (pH 7.3). The holding potential was −40 mV. The membrane potential increased from −70 to +70 mV with the 20 mV step each 20 s and returned to −40 mV. The duration of voltage pulses was 200 ms.
Measurements were carried out in 24–48 h after transfection of cells. HgTx1 (2 nM), HgTx-G (7.5 nM), Ce1 (10 nM), and Ce4 (10 nM) were dissolved in the extracellular buffer.

Kv1.1 channel (K-Kv1.1) [1] = assay: Competitive displacement of A-HgTx from complexes with K-Kv1.1 on Neuro2a cells; format: binding; settings: for Kd: displacement of A-HgTx (2 nM) from K-Kv1.1, Neuro2a cells (Figure S7), read-out: Kap, Kv1.1
Description: Content of secondary structures in the studied peptides
Table S1. Content of secondary structures in the studied peptides (%) according to the CD analysis.
Peptide α-helix β-sheet Turns Random coil
Studies of affinity of Ce1 and Ce4 peptides to Kv1.1 and Kv1.3 channels Affinity of MgTx to Kv1.3 channel and peptides Ce1 and Ce4 to Kv1.1 and Kv1.3 channels was studied using previously developed analytical systems based on fluorescent ligand A-HgTx and Kv1.1 (Kv1.3) channels expressed in the membrane of Neuro2a cells in the form of the conjugates with mKate2 fluorescent protein (K-Kv1.1 and K-Kv1.3). The approach based on the competitive displacement of A-HgTx (2 nM) from the complex with the channel by the increasing concentration of the studied peptide (Figure S6) and the previously approved formalism (described in the Materials and Methods section) were used to evaluate Kap values for MgTx, Ce1 and Ce4 peptides. For the complexes of MgTx, Ce1 and Ce4 with Kv1.3 channel the Kap values are 1.4±0.7, 13±8 and 30±10 nM, respectively. For the complex of Ce1 with Kv1.1 channel, Kap is equal to 11±5 nM. Since Ce4 […]
(Figure S6b), Kap of the complex between Ce4 and Kv1.1 is estimated to be higher than 300 nM.
Figure S7. Competitive displacement of A-HgTx (2 nM) from the complexes with K-Kv1.1 (a, b) and K-Kv1.3 (c) by Ce1, Ce4 and MgTx peptides. (a,c) The dependences of the Rav/Rav0 parameter (see the Materials and Methods section) on the concentration C of the added competitor are shown. Data are averaged over three independent experiments and presented as mean±SEM. (b) Histogram showing the effect of 1 µM Ce4 on the binding of A-HgTx (2 nM) to K-Kv1.1.
Molecular modeling of Kv1.2 channel and its complexes with peptide blockers
(1 picture or pasted object on this page, not shown here)

Kv1.1 channel (K-Kv1.1) [2] = settings: similar analytical system, read-out: Kap, Kv1.1; cited from earlier work
Description: Table 2 Sequences of Ce1, Ce4, HgTx1, and MgTx peptides and dissociation constants (Kap, nM) of their complexes with Kv1.2, Kv1.1, and Kv1.3 channels. | column: Kap, nM

Kv1.2 channels = settings: mammalian cells with depolarized membranes; read-out: 50% inhibition of the Rb+ flux through Kv1.2; cited from earlier work
Description: Kap of MgTx in our experiments is consistent with the last value.

SMILES	block of current through K-Kv1.2 (K-Kv1.2 channel)	Kd (Kv1.1 channel (K-Kv1.1) [1])	displacement of A-HgTx (2 nM) from the complex with Kv1.1 channel (Kv1.1 channel (K-Kv1.1) [1]; till the 1 µM concentration of peptide)	block of K-Kv1.2 channel currents (K-Kv1.2 channel; 2 nM HgTx1, whole-cell, room temperature, n = 10)	Kd (Kv1.1 channel (K-Kv1.1) [2])	IC50 (Kv1.2 channels)
CC[C@H](C)[C@H](NC(=O)[C@H](CCCCN)NC(=O)[C@H](Cc1ccc(O)cc1)NC(=O)[C@@H]1CSSC[C@@H]2NC(=O)[C@@H]3CCCN3C(=O)[C@H](CC(C)C)NC(=O)[C@H](CC(C)C)NC(=O)[C@@H]3CSSC[C@H](NC(=O)[C@H](CCCCN)NC(=O)CNC(=O)[C@H](CC(N)=O)NC(=O)[C@H](CCSC)NC(=O)[C@H](CSSC[C@H](NC(=O)[C@H](CCCCN)NC(=O)[C@@H](NC(=O)[C@H](CC(N)=O)NC(=O)[C@@H](NC(=O)[C@@H](NC(=O)[C@@H](N)[C@@H](C)O)[C@@H](C)CC)[C@@H](C)CC)C(C)C)C(=O)N[C@@H]([C@@H](C)O)C(=O)N[C@@H](CO)C(=O)N4CCC[C@H]4C(=O)N[C@@H](CCCCN)C(=O)N[C@@H](CCC(N)=O)C(=O)N3)NC(=O)[C@H](CCCCN)NC(=O)[C@H](C)NC(=O)CNC(=O)[C@H](C)NC(=O)[C@H](Cc3c[nH]cn3)NC(=O)[C@H]([C@@H](C)CC)NC(=O)CNC(=O)[C@H](Cc3ccc(O)cc3)NC(=O)[C@H]([C@@H](C)CC)NC(=O)[C@H](CCC(=O)O)NC(=O)[C@H](CCCCN)NC2=O)C(=O)N[C@@H](CCCCN)C(=O)N1)C(=O)O [Ce4] (H-TIINVKCTSPKQCLLPCKEIYGIHAGAKCMNGKCKCYKI-OH; disulfide 7-29, 13-34, 17-36 (inferred); N-terminus and C-terminus assumed)	block current through the channel	> 300 nM	does not displace A-HgTx	–	–	–
CC[C@H](C)[C@@H]1NC(=O)CNC(=O)[C@H](Cc2ccccc2)NC(=O)[C@H](CCC(N)=O)NC(=O)[C@H](C)NC(=O)[C@H](CCCCN)NC(=O)[C@@H]2CSSC[C@@H](C(=O)N[C@@H](Cc3ccc(O)cc3)C(=O)N3CCC[C@H]3C(=O)N[C@@H](Cc3c[nH]cn3)C(=O)O)NC(=O)[C@H](CCCCN)NC(=O)[C@@H]3CSSC[C@H](NC(=O)[C@H](CCC(N)=O)NC(=O)[C@H](CCCCN)NC(=O)[C@@H]4CCCN4C(=O)[C@H](CO)NC(=O)[C@H]([C@@H](C)O)NC(=O)[C@@H](NC(=O)[C@H](CCCCN)NC(=O)[C@@H](NC(=O)[C@H](CC(=O)O)NC(=O)[C@@H](NC(=O)[C@@H](NC(=O)[C@@H](N)[C@@H](C)O)C(C)C)[C@@H](C)CC)C(C)C)CSSC[C@H](NC(=O)[C@H](CCCCN)NC(=O)[C@H](C)NC(=O)CNC(=O)[C@H](C)NC(=O)[C@H](CCCNC(=N)N)NC1=O)C(=O)N[C@@H](CCSC)C(=O)N[C@@H](CC(N)=O)C(=O)NCC(=O)N[C@@H](CCCCN)C(=O)N3)C(=O)N[C@@H](CC(C)C)C(=O)N1CCC[C@H]1C(=O)N1CCC[C@H]1C(=O)N2 [HgTx1, hongotoxin 1] (H-TVIDVKCTSPKQCLPPCKAQFGIRAGAKCMNGKCKCYPH-OH; disulfide 7-29, 13-34, 17-36 (inferred); N-terminus and C-terminus assumed)	–	–	–	84 ± 2%	0.03 ± 0.02 nM	0.14 nM
CC[C@H](C)[C@H](NC(=O)[C@@H](NC(=O)[C@@H](N)[C@@H](C)O)C(C)C)C(=O)N[C@@H](CC(N)=O)C(=O)N[C@H](C(=O)N[C@@H](CCCCN)C(=O)N[C@H]1CSSC[C@@H]2NC(=O)[C@H](CCCCN)NC(=O)[C@H](C)NC(=O)CNC(=O)[C@H](C)NC(=O)[C@H](Cc3c[nH]cn3)NC(=O)[C@@H]3CCCN3C(=O)CNC(=O)[C@H](Cc3ccc(O)cc3)NC(=O)[C@H](CC(C)C)NC(=O)[C@H](CC(=O)O)NC(=O)[C@H](CCCCN)NC(=O)[C@@H]3CSSC[C@@H](C(=O)N[C@@H](Cc4ccc(O)cc4)C(=O)N[C@@H](CC(N)=O)C(=O)N[C@@H](CC(N)=O)C(=O)O)NC(=O)[C@H](CCCCN)NC(=O)[C@H](CSSC[C@H](NC(=O)[C@H](CCC(N)=O)NC(=O)[C@H](CCCCN)NC(=O)[C@@H]4CCCN4C(=O)[C@H](CO)NC(=O)[C@H]([C@@H](C)O)NC1=O)C(=O)N[C@@H](CC(C)C)C(=O)N[C@@H](CCCCN)C(=O)N1CCC[C@H]1C(=O)N3)NC(=O)[C@H](CCCCN)NC(=O)CNC(=O)[C@H](CC(N)=O)NC(=O)[C@H](CCSC)NC2=O)C(C)C [Ce1] (H-TVINVKCTSPKQCLKPCKDLYGPHAGAKCMNGKCKCYNN-OH; disulfide 7-29, 13-34, 17-36 (inferred); N-terminus and C-terminus assumed)	block current through the channel	11 ± 5 nM	–	–	–	–
